Source: publication PMC9343080, “Distribution- and Metabolism-Based Drug Discovery: A Potassium-Competitive Acid Blocker as a Proof of Concept” (Research, 2022)
Counter-ions that a name gives are not always drawn. Like-named read-outs stand apart in the source and are kept apart here.

Assays:
[1] = design: method as in PMID 27414183; conditions: human hepatocytes; ref [42]; cited from earlier work
[2] = target: T1, rabbit gastric H+, K+-ATPase (Oryctolagus cuniculus, UniProt P27112); assay: In vitro enzymatic activity assay (inorganic phosphate from ATP hydrolysis); type: biochemical
T1 construct: using rabbit gastric H^+, K^+-ATPase; from tissue; host or cells: rabbit stomach (gastric preparation; the method of preparation is not described)
Protocol: The in vitro enzymatic activity was calculated by measuring the inorganic phosphate produced by the hydrolysis of ATP using rabbit gastric H^+, K^+-ATPase. 0.25 μg enzyme was preincubated at 37°C for 30 min in Tris-HCl buffer (2.0 mL, 50 mM, pH 6.5) containing 5 mM MgCl2, 10 μM valinomycin, 0 or 20 mM KCl, and different concentrations of SH-337 and vonoprazan. The reaction was initiated by adding 5 μL of 5 mM ATP 2Na, and the preparation was incubated for 30 min at 37°C and halted by the addition of 100 μL of malachite green reagent (0.12% malachite green, 7.5% ammonium molybdate, and 11% tween 20 were mixed in a volume ratio of 100 : 25 : 2). H^+, K^+-ATPase activity was calculated after subtracting the enzyme activity in the absence of KCl.

[3] = Metabolite profiling, range over rat and human liver microsomes; type: in vitro ADME; conditions: rat and human microsomes after 30 and 60 min incubation
Protocol: (§1) Liver microsomes (1 mg protein/mL) were suspended in phosphate buffer (50 mM, pH 7.4) containing MgCl2 (6 mM). […] The reactions were initiated at 37°C by the addition of 1 mM NADPH and terminated at 30 min or 60 min (30 min for rat; 60 min for human). The samples were precipitated with acetonitrile at 1 : 2 and further centrifuged; the supernatants were dried with a stream of N2 gas. The residues were reconstituted with 300 μL of 10% acetonitrile/H2O (0.1% TFA) and analyzed by LC-MS/MS. The assays were pursued under the conditions provided in Supplementary Tables S4, S6, S7, and S8.

[4] = Metabolite identification and profiling in human hepatocytes; type: in vitro ADME
Protocol: (§2) SH-337 was incubated with rat or human hepatocytes at a concentration of 1.0 × 10^6 cells/mL for 60 min or 120 min (rat 60 min, human 120 min) at 37°C in a CO2 incubator. The samples were precipitated with acetonitrile at 1 : 2 and further centrifuged; the supernatants were dried with a stream of N2 gas. The residues were reconstituted with 300 μL of 10% acetonitrile/H2O (0.1% TFA) and analyzed by LC-MS/MS. The assays were pursued under the conditions provided in Supplementary Tables S5–S8.

[5] = Metabolite identification and profiling in human liver microsomes; type: in vitro ADME
Protocol: as §1

[6] = Metabolite identification and profiling in rat hepatocytes; type: in vitro ADME; conditions: for Relative peak area, RHeps: SH-337, rat hepatocytes, 60 min incubation
Protocol: as §2

[7] = Metabolite profiling, range over rat and human hepatocytes; type: in vitro ADME; conditions: rat and human hepatocytes after 60 and 120 min incubation
Protocol: as §2

[8] = Tissue distribution of SH-337 in rats (LC-MS/MS); type: in vivo, rat
Protocol: 15 SPF male SD rats were randomly divided into 5 groups, three per group. Fasting was for 4 hours. Plasma, heart, liver, and stomach were obtained 0.25, 1, 2, 4, and 24 hours after oral administration of SH-337 (0.4 mg/mL in water) at a dose of 4 mg/kg. At designated time points, rats were anesthetized with ether, and the blood samples were collected via the abdominal aorta. The blood was immediately cooled under ice-chilled conditions and centrifuged at approximately 1500 × g at 4°C for 10 minutes to obtain the plasma. For plasma: 20 μL Std samples in duplicate, QC samples in duplicate, and rat plasma samples were mixed with 60 μL ACN containing IS (200 ng/mL of tolbutamide, 50 ng/mL of propranolol, and 500 ng/mL of Dic) in EP tubes. After the mixture was vortexed for 1 min and then centrifuged for 10 min (13000 rpm, 4°C), transfer 50 μL supernatant to a 96-well plate with 150 μL pure water, shake for 10 min, and finally analyze by LC-MS/MS. For heart and liver: tissue samples were added with 3-folds (w/v) saline in terms of the weight of samples and then homogenated. 20 μL Std samples in duplicate, QC samples in duplicate, and rat heart and liver samples were mixed with 60 μL ACN containing IS (200 ng/mL of tolbutamide, 50 ng/mL of propranolol, and 500 ng/mL of Dic) in EP tubes. After the mixture was vortexed for 1 min and then centrifuged for 10 min (13000 rpm, 4°C), transfer 50 μL supernatant to a 96-well plate with 150 μL pure water, shake for 10 min, and finally analyze by LC-MS/MS. For stomach: tissue samples were added with 3-folds (w/v) saline in terms of the weight of samples and then homogenated. 20 μL Std samples in duplicate, QC samples in duplicate, and rat stomach samples were mixed with 60 μL ACN containing IS (200 ng/mL of tolbutamide, 50 ng/mL of propranolol, and 500 ng/mL of Dic) in EP tubes. After the mixture was vortexed for 1 min and then centrifuged for 10 min (13000 rpm, 4°C), transfer 50 μL supernatant to a 96-well plate with 150 μL pure water, shake for 10 min, and finally analyze by LC-MS/MS.

[9] = Metabolite identification and profiling in rat liver microsomes; type: in vitro ADME
Protocol: as §1

[10] = cited from earlier work
[11] = pKa measurement (pH-metric method); type: physicochemical; conditions: read-out: pKa
Protocol: (§3) Procedure for pKa and log D7.4 measurements. The pKa was determined using pH-metric Method from DMSO Stock Solution. Procedure for Log D determinations: 15 µL of stock solutions of test compounds and control compound was placed in order into their proper 96-well rack. 500 µL of PBS saturated 1-octanol was added into each vial of the cap-less Log D plate followed by the addition of 500 µL of 1-octanol saturated PBS (pH 7.4). One stir stick was added to each vial and a molded PTFE/Silicone plug was used to seal each vial. Then the Log D plate was transferred to the Eppendorf Thermomixer Comfort plate shaker and shaken at 25°C at 1,100 RPM for 1 hour. After completion of 1 hour, plugs were removed and the stir sticks were removed using a big magnet. The samples were then centrifuged at 25°C at 20,000 g for 20 minutes to separate the phases, and pipette and syringe were used to remove the upper (1-octanol) and lower (buffer) phases to the empty tubes, respectively. Aliquots of 5 µL were taken from upper phases followed by addition of 495 µL of a mixture of H2O and acetonitrile (1:1 in v/v). Vortex for 1 minute, and then aliquots of 50 µL were taken from the diluent followed by addition of 450 µL of a mixture of H2O and acetonitrile (1:1 in v/v). And aliquots of 50 µL were taken from lower phases followed by addition of 450 µL of a mixture of H2O and acetonitrile (1:1 in v/v). 200 μL of diluent was transferred to a new 96-well plate for LC-MS/MS analysis. The dilution factor was changed according to the Log D value and the LC-MS signal response. The concentrations of test compound and control compound in 1-octanol/buffer solution were evaluated by LC-MS/MS. The Log D values of the test compounds and control compound were calculated as follows: […]

[12] = log D7.4 measurement (1-octanol/PBS pH 7.4); type: physicochemical; conditions: 1-octanol/PBS, pH 7.4, pH 7.4
Protocol: as §3

[13] = rats, i.g. 2 mg/kg vonoprazan, ref [43]

T1 sequence (P27112 whole entry): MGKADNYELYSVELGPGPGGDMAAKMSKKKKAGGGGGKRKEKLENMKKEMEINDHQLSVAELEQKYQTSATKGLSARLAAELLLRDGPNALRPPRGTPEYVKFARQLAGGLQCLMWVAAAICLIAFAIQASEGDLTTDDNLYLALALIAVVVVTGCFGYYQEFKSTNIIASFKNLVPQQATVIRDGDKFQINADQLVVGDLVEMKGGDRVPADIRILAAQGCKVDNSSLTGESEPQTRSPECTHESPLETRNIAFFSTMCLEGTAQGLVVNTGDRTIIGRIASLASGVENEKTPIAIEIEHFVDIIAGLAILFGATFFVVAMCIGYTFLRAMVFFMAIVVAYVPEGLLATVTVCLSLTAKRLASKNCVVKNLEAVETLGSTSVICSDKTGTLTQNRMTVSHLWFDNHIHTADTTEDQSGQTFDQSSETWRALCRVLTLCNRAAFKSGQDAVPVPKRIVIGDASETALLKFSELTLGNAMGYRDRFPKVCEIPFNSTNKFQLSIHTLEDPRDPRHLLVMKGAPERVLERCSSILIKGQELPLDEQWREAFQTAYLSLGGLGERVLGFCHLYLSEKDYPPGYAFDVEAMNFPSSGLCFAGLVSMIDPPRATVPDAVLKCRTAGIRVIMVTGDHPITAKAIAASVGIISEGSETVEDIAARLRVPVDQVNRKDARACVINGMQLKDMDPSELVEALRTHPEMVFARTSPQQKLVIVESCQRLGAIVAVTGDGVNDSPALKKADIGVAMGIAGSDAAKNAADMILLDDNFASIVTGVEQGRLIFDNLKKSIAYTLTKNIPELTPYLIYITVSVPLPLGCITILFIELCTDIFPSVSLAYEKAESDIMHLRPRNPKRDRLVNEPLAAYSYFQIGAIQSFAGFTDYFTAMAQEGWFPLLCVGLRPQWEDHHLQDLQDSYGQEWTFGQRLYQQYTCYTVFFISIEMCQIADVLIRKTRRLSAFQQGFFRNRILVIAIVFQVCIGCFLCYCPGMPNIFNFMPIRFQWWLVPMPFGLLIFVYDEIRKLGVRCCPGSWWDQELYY
T1 sequence (P18597 whole entry partner): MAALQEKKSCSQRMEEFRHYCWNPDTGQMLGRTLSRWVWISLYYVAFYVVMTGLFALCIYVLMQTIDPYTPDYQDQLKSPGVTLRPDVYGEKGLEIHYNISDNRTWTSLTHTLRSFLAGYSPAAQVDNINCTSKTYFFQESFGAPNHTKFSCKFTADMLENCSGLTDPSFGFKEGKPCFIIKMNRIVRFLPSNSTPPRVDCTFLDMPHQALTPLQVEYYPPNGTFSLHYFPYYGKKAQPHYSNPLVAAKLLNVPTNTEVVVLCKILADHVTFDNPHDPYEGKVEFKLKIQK

SMILES: C/[N+]([O-])=C/c1cc(-c2ccccc2F)n(S(=O)(=O)c2cccnc2)c1 [M-III]
- share in the in vitro metabolic profile of vonoprazan [1]: 4.1%

SMILES: O=C(O)c1c[nH]c(-c2ccccc2F)c1 [M-II]
- share in the in vitro metabolic profile of vonoprazan [1]: 0.5%

SMILES: CNCc1cc(-c2ccc(O)cc2F)n(S(=O)(=O)c2cccnc2)c1.Cl.Cl [M-IV, 3-fluoro-4-(4-((methylamino)methyl)-1-(pyridin-3-ylsulfonyl)-1H-pyrrol-2-yl)phenol dihydrochloride]
- IC50 [2]: 112 nM
- Percentage of all SH-337 metabolites in microsomes [3]: 89.4-90.2%
- Relative peak area, Hheps ([4]; SH-337, human hepatocytes, 120 min incubation): 11.6%
- Percentage of all the metabolites except SH-337, Hheps ([4]; human hepatocytes, 120 min): 49.4%
- Percentage of all the metabolites except SH-337, HLMs ([5]; 60 min): 89.4%
- Relative peak area, HLMs ([5]; SH-337 10 µM, 60 min incubation): 27.8%
- Relative peak area, RHeps [6]: 40.3%
- Percentage of all the metabolites except SH-337, RHeps ([6]; rat hepatocytes, 60 min): 56.1%
- Percentage of all SH-337 metabolites in hepatocytes [7]: 49.4–56.1%
- AUC0–24 in the liver ([8]; after oral dosing of 4.0 mg/kg SH-337): 3410 ng·h/g
- AUC(0-t) ([8]; male, SD, rat, plasma, po, rats, i.g. 4 mg/kg SH-337, read-out: AUC0–24, Plasma): 20.3 ng·h/mL
- AUC0–24, Liver ([8]; rats, i.g. 4 mg/kg SH-337): 3411.2 ng equiv. h/mL or g
- AUC0–24, Stomach ([8]; rats, i.g. 4 mg/kg SH-337): 94.1 ng equiv. h/mL or g
- Percentage of all the metabolites except SH-337, RLMs ([9]; 30 min): 90.2%
- Relative peak area, RLMs ([9]; SH-337 10 µM, 30 min incubation): 49%

SMILES: CN(Cc1cc(-c2ccc(O)cc2F)n(S(=O)(=O)c2cccnc2)c1)S(=O)(=O)O [M-IV-Sul]
- share in the in vitro metabolic profile of vonoprazan [1]: 28%

SMILES: O=C(O)c1cc(-c2ccccc2F)n(S(=O)(=O)c2cccnc2)c1 [M-I]
- share in the in vitro metabolic profile of vonoprazan [1]: 18%
- AUC0–24 in the liver ([10]; after oral dosing of 2.0 mg/kg vonoprazan, ref [43]): 18400 ng·h/g
- fold higher levels compared with those of vonoprazan ([10]; plasma, liver and kidney, rat model, ref [44]): 4.3- to 58 fold
- AUC0–24, Liver [10, 13]: 18404.0 ng equiv. h/mL or g
- AUC0–24, Plasma [10, 13]: 4392.0 ng equiv. h/mL or g
- AUC0–24, Stomach [10, 13]: 918.0 ng equiv. h/mL or g

SMILES: NCc1cc(-c2ccccc2F)n(S(=O)(=O)c2cccnc2)c1 [N-demethylated vonoprazan]
- share in the in vitro metabolic profile of vonoprazan [1]: 30%

SMILES: CNCc1cc(-c2ccc(OCc3cnn(C)c3)cc2F)n(S(=O)(=O)c2cccnc2)c1 [S1, 1-(5-(2-fluoro-4-((1-methyl-1H-pyrazol-4-yl)methoxy)phenyl)-1-(pyridin-3-ylsulfonyl)-1H-pyrrol-3-yl)-N-methylmethanamine fumarate]
- IC50 [2]: 57.8 nM
- pKa [11]: 9.26
- logD at 1 h [12]: 0.5

SMILES: CNCc1cc(-c2ccc(OCC3COC3)cc2F)n(S(=O)(=O)c2cccnc2)c1 [S2, 1-(5-(2-fluoro-4-(oxetan-3-ylmethoxy)phenyl)-1-(pyridin-3-ylsulfonyl)-1H-pyrrol-3-yl)-N-methylmethanamine dihydrochloride]
- IC50 [2]: 129 nM
- pKa [11]: 9.13
- logD at 1 h [12]: 0.91

SMILES: CN(Cc1cc(-c2ccc(OCC3CC3)cc2F)n(S(=O)(=O)c2cccnc2)c1)S(=O)(=O)O [Sulfated SH-337]
- Percentage of all SH-337 metabolites in microsomes [3]: 0%
- Relative peak area, RHeps [6]: 0.1%
- Percentage of all SH-337 metabolites in hepatocytes [7]: 0.13%
